Molecules are shown by their SMILES. Numbers after ± are expanded uncertainties.

For this series the following is noted: 298.15 K; 101.33 kPa; Liquid; Vibrating tube method.
What is called mass density is mass per unit of volume. Regarding `CCCCCC(=O)O` [hexanoic acid], the mass density was 923.07 ± 0.21 kg/m3.
Regarding `CCCCCCC=O` [heptanal], the mass density is 816.83 ± 3.2 kg/m3.
In the case of `CCCC(=O)O` [butanoic acid], the mass density is reported as 953.05 ± 0.21 kg/m3.
As to `C[S+](C)[O-]` [dimethyl sulfoxide], the mass density was 1095.34 ± 0.21 kg/m3.
The figure for `CCCCCCCC(=O)O` [octanoic acid] is 906 ± 0.32 kg/m3; for `CC(C)O` [propan-2-ol] it is 780.69 ± 0.23 kg/m3.
On to `CCCCC(=O)O` [pentanoic acid], for which the mass density is recorded as 934.75 ± 0.21 kg/m3.
The figure for `CCCCCC=O` [hexanal] is 830.01 ± 1 kg/m3.

The values are drawn from the NIST ThermoML archive (doi:10.1016/j.jct.2018.10.030).
